Test results taken from patent US4399125A, “Novel antagonists of the antidiuretic action of arginine vasopressin” (priority 1981, dated 1983).
*1 amine or outer side, *2 acyl side, *3 side chain or, on linkers, in order; H or OH if unused. Where a SMILES comes first, the peptide text is derived from it. Bridges are numbered along the chain shown (N, C = ends). [ ]: non-standard residue; d: D form. The star is where a group is joined. X1 = O=C(CC1(S[*:2])CCCCC1)[*:1]; Propyl = CCC*; iPr = CC(C)*

What was measured:
[1] = tested on: antidiuretic response to ADH (arginine vasopressin); test: Antagonism of the antidiuretic response to ADH (anti-antidiuretic potency) in ethanol-anesthetized water-loaded rats; conditions: estimated in vivo pA2 = negative logarithm of effective dose divided by estimated volume of distribution (67 mL/kg); (n) in parentheses
Protocol: Activity as antidiuretic agonists was determined by intravenous injection of compounds being evaluated into ethanol-anesthesized water-loaded rats in accordance with Sawyer et al., Endocrinology, vol. 63 (1958) at 694.
(§1) Antagonistic potencies were determined and expressed as "effective doses" and as pA2 values. The "effective dose" is defined as the dose (in nanomoles per kilogram) that reduces the response seen from 2x units of agonist injected 20 min after the dose of antagonist to the response with 1x units of agonist.

[2] = tested on: vasopressor response to AVP; test: Antagonism to the vasopressor response (Dyckes et al.); conditions: estimated in vivo pA2 (Schild); effective dose / 67 mL/kg; (n) in parentheses
Protocol: Antagonism to the vasopressor response was estimated in accordance with Dyckes et al., J. Med. Chem., vol. 17 (1974) at 969. The values are expressed as pA2 values, defined by Schild et al., Br. J. Pharmacol., vol. 2 (1947) at 189.
as §1

COc1ccc(C[C@H]2NC(=O)CC3(CCCCC3)SSC[C@@H](C(=O)N3CCC[C@H]3C(=O)N[C@@H](CCCNC(=N)N)C(=O)NCC(N)=O)NC(=O)[C@H](CC(N)=O)NC(=O)[C@H](C(C)C)NC(=O)[C@H](Cc3ccccc3)NC2=O)cc1 [d(CH2)5 --D-Tyr(Me) VAVP] ([dY](Me)FVNCPRG-NH2; linker N-5 via X1)
Anti-Antidiuretic pA2 [1]: 7.77 ± 0.07 | Antivasopressor pA2 [2]: 8.48 ± 0.08

CCOc1ccc(C[C@@H]2NC(=O)CC3(CCCCC3)SSC[C@@H](C(=O)N3CCC[C@H]3C(=O)N[C@H](CCCNC(=N)N)C(=O)NCC(N)=O)NC(=O)[C@H](CC(N)=O)NC(=O)[C@H](C(C)C)NC(=O)[C@H](Cc3ccccc3)NC2=O)cc1 [d(CH2)5 Tyr(Et) VDAVP] (Y(Et)FVNCP[dR]G-NH2; linker N-5 via X1)
Anti-Antidiuretic pA2 [1]: 7.10 ± 0.08 | Antivasopressor pA2 [2]: 8.31 ± 0.05

CC[C@@H](C)[C@H]1NC(=O)CC2(CCCCC2)SSC[C@@H](C(=O)N2CCC[C@H]2C(=O)N[C@@H](CCCNC(=N)N)C(=O)NCC(N)=O)NC(=O)[C@H](CC(N)=O)NC(=O)[C@H](C(C)C)NC(=O)[C@H](Cc2ccccc2)NC1=O [d(CH2)5 [D-Ile^2] VAVP, [1-(β-mercapto-β,β-cyclopentamethylenepropionic acid), 2-D-isoleucine, 4-valine]-arginine vasopressin] ([dI]FVNCPRG-NH2; linker N-5 via X1)
Anti-Antidiuretic pA2 [1]: 7.98 ± 0.05 | Antivasopressor pA2 [2]: 6.94 ± 0.08

CC(C)Oc1ccc(C[C@@H]2NC(=O)CC3(CCCCC3)SSC[C@@H](C(=O)N3CCC[C@H]3C(=O)N[C@H](CCCNC(=N)N)C(=O)NCC(N)=O)NC(=O)[C@H](CC(N)=O)NC(=O)[C@H](C(C)C)NC(=O)[C@H](Cc3ccccc3)NC2=O)cc1 [d(CH2)5 Tyr(i-Pr) VDAVP] (Y(iPr)FVNCP[dR]G-NH2; linker N-5 via X1)
Anti-Antidiuretic pA2 [1]: 6.88 ± 0.07 | Antivasopressor pA2 [2]: 8.41 ± 0.08

CCCOc1ccc(C[C@@H]2NC(=O)CC3(CCCCC3)SSC[C@@H](C(=O)N3CCC[C@H]3C(=O)N[C@@H](CCCNC(=N)N)C(=O)NCC(N)=O)NC(=O)[C@H](CC(N)=O)NC(=O)[C@H](C(C)C)NC(=O)[C@H](Cc3ccccc3)NC2=O)cc1 [d(CH2)5 Tyr(n-Pr) VAVP] (Y(Propyl)FVNCPRG-NH2; linker N-5 via X1)
Anti-Antidiuretic pA2 [1]: 7.29 ± 0.07 | Antivasopressor pA2 [2]: 8.22 ± 0.04

CCOc1ccc(C[C@H]2NC(=O)CC3(CCCCC3)SSC[C@@H](C(=O)N3CCC[C@H]3C(=O)N[C@@H](CCCNC(=N)N)C(=O)NCC(N)=O)NC(=O)[C@H](CC(N)=O)NC(=O)[C@H](C(C)C)NC(=O)[C@H](Cc3ccccc3)NC2=O)cc1 [d(CH2)5 --D-Tyr(Et) VAVP] ([dY](Et)FVNCPRG-NH2; linker N-5 via X1)
Anti-Antidiuretic pA2 [1]: 7.81 ± 0.07 | Antivasopressor pA2 [2]: 8.22 ± 0.12

CC(C)[C@@H]1NC(=O)[C@H](Cc2ccccc2)NC(=O)[C@@H](C)NC(=O)CC2(CCCCC2)SSC[C@@H](C(=O)N2CCC[C@H]2C(=O)N[C@@H](CCCNC(=N)N)C(=O)NCC(N)=O)NC(=O)[C@H](CC(N)=O)NC1=O [d(CH2)5 [D-Ala^2] VAVP, [1-(β-mercapto-β,β-cyclopentamethylenepropionic acid), 2-D-alanine, 4-valine]-arginine vasopressin] ([dA]FVNCPRG-NH2; linker N-5 via X1)
Antivasopressor pA2 [2]: 5.79 ± 0.08

CC(C)[C@@H]1NC(=O)[C@H](Cc2ccccc2)NC(=O)[C@@H](CCCNC(=N)N)NC(=O)CC2(CCCCC2)SSC[C@@H](C(=O)N2CCC[C@H]2C(=O)N[C@@H](CCCNC(=N)N)C(=O)NCC(N)=O)NC(=O)[C@H](CC(N)=O)NC1=O [d(CH2)5 [D-Arg^2] VAVP, [1-(β-mercapto-β,β-cyclopentamethylenepropionic acid), 2-D-arginine, 4-valine]-arginine vasopressin] ([dR]FVNCPRG-NH2; linker N-5 via X1)
Anti-Antidiuretic pA2 [1]: < 5.9 | Antivasopressor pA2 [2]: ~ 5.4

CC(C)[C@@H]1NC(=O)[C@H](Cc2ccccc2)NC(=O)[C@@H](Cc2ccccc2)NC(=O)CC2(CCCCC2)SSC[C@@H](C(=O)N2CCC[C@H]2C(=O)N[C@@H](CCCNC(=N)N)C(=O)NCC(N)=O)NC(=O)[C@H](CC(N)=O)NC1=O [d(CH2)5 D-Phe VAVP, [1-(β-mercapto-β,β-cyclopentamethylenepropionicacid), 2-D-phenylalanine, 4-valine]-arginine vasopressin] ([dF]FVNCPRG-NH2; linker N-5 via X1)
Anti-Antidiuretic pA2 [1]: 8.07 ± 0.09 | Antivasopressor pA2 [2]: 8.06 ± 0.03

CC(C)Oc1ccc(C[C@@H]2NC(=O)CC3(CCCCC3)SSC[C@@H](C(=O)N3CCC[C@H]3C(=O)N[C@@H](CCCNC(=N)N)C(=O)NCC(N)=O)NC(=O)[C@H](CC(N)=O)NC(=O)[C@H](C(C)C)NC(=O)[C@H](Cc3ccccc3)NC2=O)cc1 [d(CH2)5 Tyr(i-Pr) VAVP] (Y(iPr)FVNCPRG-NH2; linker N-5 via X1)
Anti-Antidiuretic pA2 [1]: 7.32 ± 0.06 | Antivasopressor pA2 [2]: 8.36 ± 0.09

COc1ccc(C[C@@H]2NC(=O)CC3(CCCCC3)SSC[C@@H](C(=O)N3CCC[C@H]3C(=O)N[C@@H](CCCNC(=N)N)C(=O)NCC(N)=O)NC(=O)[C@H](CC(N)=O)NC(=O)[C@H](C(C)C)NC(=O)[C@H](Cc3ccccc3)NC2=O)cc1 [d(CH2)5 Tyr(Me) VAVP] (Y(Me)FVNCPRG-NH2; linker N-5 via X1)
Anti-Antidiuretic pA2 [1]: 7.35 ± 0.06 | Antivasopressor pA2 [2]: 8.32 ± 0.08

CC(C)[C@@H]1NC(=O)[C@H](Cc2ccccc2)NC(=O)[C@@H](Cc2ccc(O)cc2)NC(=O)CC2(CCCCC2)SSC[C@@H](C(=O)N2CCC[C@H]2C(=O)N[C@@H](CCCNC(=N)N)C(=O)NCC(N)=O)NC(=O)[C@H](CC(N)=O)NC1=O [d(CH2)5 D-Tyr VAVP, [1-(β-mercapto-β,β-cyclopentamethylenepropionic acid), 2-D-tyrosine, 4-valine]-arginine vasopressin] ([dY]FVNCPRG-NH2; linker N-5 via X1)
Anti-Antidiuretic pA2 [1]: 7.51 ± 0.08 | Antivasopressor pA2 [2]: 8.41 ± 0.11

CCCOc1ccc(C[C@@H]2NC(=O)CC3(CCCCC3)SSC[C@@H](C(=O)N3CCC[C@H]3C(=O)N[C@H](CCCNC(=N)N)C(=O)NCC(N)=O)NC(=O)[C@H](CC(N)=O)NC(=O)[C@H](C(C)C)NC(=O)[C@H](Cc3ccccc3)NC2=O)cc1 [d(CH2)5 Tyr(n-Pr) VDAVP] (Y(Propyl)FVNCP[dR]G-NH2; linker N-5 via X1)
Anti-Antidiuretic pA2 [1]: 6.67 ± 0.05 | Antivasopressor pA2 [2]: 7.86 ± 0.10

CCOc1ccc(C[C@@H]2NC(=O)CC3(CCCCC3)SSC[C@@H](C(=O)N3CCC[C@H]3C(=O)N[C@@H](CCCNC(=N)N)C(=O)NCC(N)=O)NC(=O)[C@H](CC(N)=O)NC(=O)[C@H](C(C)C)NC(=O)[C@H](Cc3ccccc3)NC2=O)cc1 [d(CH2)5 Tyr(Et) VAVP] (Y(Et)FVNCPRG-NH2; linker N-5 via X1)
Anti-Antidiuretic pA2 [1]: 7.57 ± 0.06 | Antivasopressor pA2 [2]: 8.16 ± 0.09

CC(C)[C@@H]1NC(=O)[C@H](Cc2ccccc2)NC(=O)[C@@H](Cc2ccccc2)NC(=O)CC2(CCCCC2)SSC[C@@H](C(=O)N2CCC[C@H]2C(=O)N[C@H](CCCNC(=N)N)C(=O)NCC(N)=O)NC(=O)[C@H](CC(N)=O)NC1=O [d(CH2)5 D-Phe VDAVP, [1-(β-mercapto-β,β-cyclopentamethylenepropionic acid), 2-D-phenylalanine, 4-valine, 8-D-arginine] vasopressin] ([dF]FVNCP[dR]G-NH2; linker N-5 via X1)
Anti-Antidiuretic pA2 [1]: 7.07 ± 0.10 | Antivasopressor pA2 [2]: 7.98 ± 0.07
